Laboratory results from patent publication US20100076047A1, “Amorphous 1-(9H-carbazol-4-yloxy)-3-[[2-(2-methoxyphenoxy)ethyl]amino]-2-propanol phosphate salt” (priority 2007, published 2010).
Where a name gives a salt, the structure may show the parent alone.

How the values were obtained:
[1] = moisture uptake on exposure to air; type: physicochemical
[2] = storage stability of the solid amorphous form (XRD); type: physicochemical
Description: Solid amorphous Carvedilol dihydrogen phosphate is provided herein.

In the case of `COc1ccccc1OCCNCC(O)COc1cccc2[nH]c3ccccc3c12` (stereo not shown) [1-(9H-carbazol-4-yloxy)-3-[[2-(2-methoxyphenoxy)ethyl]amino]-2-propanol phosphate salt], the “XRD pattern after moisture uptake” value ([1]; after picking up moisture up to 7%) is reported as “remains identical”, the “moisture picked up when exposed to air” value ([1]; material of low moisture content exposed to air, forming higher hydrates) is reported as “up to 7%” and the stability on storage ([2]; stored under controlled humidity conditions, no conversion to a crystalline form) is reported as “stable”. For the same compound, the “stability profile compared to the existing crystalline forms” value ([2]; versus existing crystalline forms) was “superior stability profile”.
